The term IC50 denotes the concentration needed to halve the response being measured. Read a high IC50 as weaker potency in that assay.

Chain of FGFR2 (P21802 399-821 limits assumed): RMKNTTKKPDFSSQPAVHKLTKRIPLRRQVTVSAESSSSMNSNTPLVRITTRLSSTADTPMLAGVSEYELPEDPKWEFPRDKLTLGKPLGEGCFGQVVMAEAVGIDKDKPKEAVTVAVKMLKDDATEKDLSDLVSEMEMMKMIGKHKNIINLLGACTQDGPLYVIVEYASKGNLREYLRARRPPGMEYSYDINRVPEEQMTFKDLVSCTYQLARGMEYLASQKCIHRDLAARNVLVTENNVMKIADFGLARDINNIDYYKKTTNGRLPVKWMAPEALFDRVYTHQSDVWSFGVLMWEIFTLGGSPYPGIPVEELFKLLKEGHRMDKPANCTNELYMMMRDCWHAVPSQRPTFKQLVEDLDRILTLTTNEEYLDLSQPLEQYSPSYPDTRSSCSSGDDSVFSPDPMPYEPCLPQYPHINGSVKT

The first assay concerns the target FGFR2 (Homo sapiens, UniProt P21802). In words: FGFR wild type enzyme assay (HTRF KinEASE-TK), FGFR2. As to conditions: Enz FGFR2 (nM).
Regarding `CCSc1cc(-c2cnn([C@H]3CCCNC3)c2)cn2ncc(C#N)c12` [Example 51, 4-ethylsulfanyl-6-[1-[(3S)-3-piperidyl]pyrazol-4-yl]pyrazolo[1,5-a]pyridine-3-carbonitrile], the IC50 came out at 1 nM.

Compound `Cc1c(-c2cc(Sc3c(F)cccc3C#N)c3c(C#N)cnn3c2)cnn1C1CCN(C)CC1` [Example 119] showed an IC50 of 1 nM.

The compound `Cc1c(-c2cc(Sc3cccc4c3ncn4C)c3c(C#N)cnn3c2)cnn1C1CCN(C)CC1` [Example 131, 4-(1-methylbenzimidazol-4-yl)sulfanyl-6-[5-methyl-1-(1-methyl-4-piperidyl)pyrazol-4-yl]pyrazolo[1,5-a]pyridine-3-carbonitrile] had an IC50 of 40 nM.

On to `Cc1ccnc(Sc2cc(-c3cnn(C4CCNCC4)c3)cn3ncc(C#N)c23)c1C` [Example 72, 4-((3,4-dimethylpyridin-2-yl)thio)-6-(1-(piperidin-4-yl)-1H-pyrazol-4-yl)pyrazolo[1,5-a]pyridine-3-carbonitrile], for which it took 3 nM to reach half-maximal inhibition (IC50). Compared with the last compound, the IC50 is about 13-fold lower.

Turning to `N#Cc1cnn2cc(-c3cnn([C@H]4CCCNC4)c3)cc(Sc3ccncn3)c12` [Example 76, 6-[1-[(3S)-3-piperidyl]pyrazol-4-yl]-4-pyrimidin-4-ylsulfanyl-pyrazolo[1,5-a]pyridine-3-carbonitrile], 237 nM corresponded to half-maximal inhibition (IC50).

`COCCN1CCC(n2ncc(-c3cc(Sc4ncccc4F)c4c(C#N)cnn4c3)c2C)CC1` [Example 109, 4-[(3-fluoro-2-pyridyl)sulfanyl]-6-[1-[1-(2-methoxyethyl)-4-piperidyl]-5-methyl-pyrazol-4-yl]pyrazolo[1,5-a]pyridine-3-carbonitrile] registered an IC50 of 2 nM.

The same assay, now with this note: Enz FGFR2 (nM), FGFR2 wild type enzyme.
The compound `Cc1c(-c2cc(Sc3ccc(F)cc3C#N)c3c(C#N)cnn3c2)cnn1C1CCN(C[C@@H](C)O)CC1` [Example 331, (R)-4-((2-cyano-4-fluorophenyl)thio)-6-(1-(1-(2-hydroxypropyl)piperidin-4-yl)-5-methyl-1H-pyrazol-4-yl)pyrazolo[1,5-a]pyridine-3-carbonitrile] registered an IC50 of 1 nM.

`CC(=O)N(C)[C@H]1CC[C@@H](n2ncc(-c3cc(Sc4ccccc4C#N)c4c(C#N)cnn4c3)c2C)CC1` [Example 231, N-((1s,4s)-4-(4-(3-cyano-4-((2-cyanophenyl)thio)pyrazolo [1,5-a]pyridin-6-yl)-5-methyl-1H-pyrazol-1-yl)cyclohexyl)-N-methylacetamide]: half-maximal inhibition (IC50) required 1 nM.

In turn, `CC(=O)N1C[C@@H]2[C@H](C1)[C@H]2Cn1ncc(-c2cc(Sc3ncccc3F)c3c(C#N)cnn3c2)c1C` [Example 237, 6-(1-(((1R,5S,6r)-3-acetyl-3-azabicyclo[3.1.0]hexan-6-yl)methyl)-5-methyl-1H-pyrazol-4-yl)-4-((3-fluoropyridin-2-yl)thio)pyrazolo[1,5-a]pyridine-3-carbonitrile] yielded a concentration for half-maximal inhibition (IC50) of 3 nM.

`Cc1c(-c2cc(Sc3ccc(F)cc3C#N)c3c(C#N)cnn3c2)cnn1[C@@H]1C[C@H]2CC[C@@H](C1)N2C` [Example 289, 4-((2-cyano-4-fluorophenyl)thio)-6-(5-methyl-1-((1R,3s,5S)-8-methyl-8-azabicyclo[3.2.1]octan-3-yl)-1H-pyrazol-4-yl)pyrazolo[1,5-a]pyridine-3-carbonitrile]: the IC50 worked out at 0.5 nM.

The compound `Cc1c(-c2cc(Sc3ncccc3F)c3c(C#N)cnn3c2)cnn1CC1CCN(CC(=O)N(C)C)CC1` [Example 217, 2-(4-((4-(3-cyano-4-((3-fluoropyridin-2-yl)thio)pyrazolo[1,5-a]pyridin-6-yl)-5-methyl-1H-pyrazol-1-yl)methyl)piperidin-1-yl)-N,N-dimethylacetamide] displayed an IC50 of 6 nM.

In the case of `Cc1c(-c2cc(Sc3ncccc3F)c3c(C#N)cnn3c2)cnn1[C@H]1CC[C@@H](N)CC1` [Example 186, 6-(1-((1s,4s)-4-aminocyclohexyl)-5-methyl-1H-pyrazol-4-yl)-4-((3-fluoropyridin-2-yl)thio)pyrazolo[1,5-a]pyridine-3-carbonitrile], the midpoint of inhibition, the IC50, lay at 3 nM. This IC50 lies about 2-fold lower than the previous one.

The compound `Cc1c(-c2cc(Sc3ccc(F)cc3C#N)c3c(C#N)cnn3c2)cnn1[C@H]1CC[C@@H](N(C)CCO)CC1` [Example 317, 4-((2-cyano-4-fluorophenyl)thio)-6-(1-((1s,4s)-4-((2-hydroxyethyl)(methyl)ami-no)cyclohexyl)-5-methyl-1H-pyrazol-4-yl)pyrazolo[1,5-a]pyridine-3-carbonitrile] gave an IC50 of 0.5 nM.

In turn, `Cc1c(-c2cc(Sc3ncccc3F)c3c(C#N)cnn3c2)cnn1C1CCC(N(C)C)CC1` (stereo not shown) [Example 171] gave an IC50 of 1 nM.

Take `CN[C@H]1CC[C@@H](n2ncc(-c3cc(Sc4ccccn4)c4c(C#N)cnn4c3)c2C)CC1` [Example 311, 6-(5-methyl-1-((1s,4s)-4-(methylamino)cyclohexyl)-1H-pyrazol-4-yl)-4-(pyridin-2-ylthio)pyrazolo[1,5-a]pyridine-3-carbonitrile]: the IC50 was 2 nM. This IC50 is about 2-fold higher than that of the compound before.

The assay is the same for the next values; noted with them: Enz FGFR2 (nM), FGFR2 wild type enzyme assay.
`CC(C)(O)CN1CC[C@H](n2cc(-c3cc(Sc4ncccc4F)c4c(C#N)cnn4c3)cn2)C1` [Example 477, (S)-4-((3-fluoropyridin-2-yl)thio)-6-(1-(1-(2-hydroxy-2-methylpropyl)pyrrolidin-3-yl)-1H-pyrazol-4-y)pyrazolo[1,5-a]pyridine-3-carbonitrile] displayed an IC50 of 1 nM.

Turning to `COc1ccc(Sc2cc(-c3cnn(C4CCN(C)CC4)c3C)cn3ncc(C#N)c23)c(C#N)c1` [Example 379, 4-((2-cyano-4-methoxyphenyl)thio)-6-(5-methyl-1-(1-methylpiperidin-4-yl)-1H-pyrazol-4-yl)pyrazolo[1,5-a]pyridine-3-carbonitrile], half-maximal inhibition (IC50) was put at 25 nM.

`COC(=O)N1CCC[C@H](n2cc(-c3cc(Sc4ccccc4C#N)c4c(C#N)cnn4c3)cn2)C1` [Example 482, methyl (S)-3-(4-(3-cyano-4-((2-cyanophenyl)thio)pyrazolo [1,5-a]pyridin-6-yl)-1H-pyrazol-1-yl)piperidine-1-carboxylate]: the IC50 was found to be 1 nM.

As to `N#Cc1ccccc1Sc1cc(-c2cnn([C@@H]3CCCN(C(=O)CO)C3)c2)cn2ncc(C#N)c12` [Example 536, (R)-4-((2-cyanophenyl)thio)-6-(1-(1-(2-hydroxyacetyl)piperidin-3-yl)-1H-pyrazol-4-yl)pyrazolo[1,5-a]pyridine-3-carbonitrile], the midpoint of inhibition, the IC50, lay at 1 nM.

For the compound `Cc1c(-c2cc(Sc3ccc(F)cc3C#N)c3c(C#N)cnn3c2)cnn1[C@H]1CC[C@H](OP(=O)(O)O)CC1` [Example 543, [4-[4-[3-cyano-4-(2-cyano-4-fluoro-phenyl)sulfanyl-pyrazolo[1,5-a]pyridin-6-yl]-5-methylpyrazol-1-yl]cyclohexyl] dihydrogen phosphate], the midpoint of inhibition, the IC50, lay at 2 nM.

In the case of `CC(=O)N1[C@@H]2CC[C@H]1C[C@H](n1ncc(-c3cc(Sc4ccc(F)cc4C#N)c4c(C#N)cnn4c3)c1C)C2` [Example 373, 6-(1-((1R,3s,5S)-8-acetyl-8-azabicyclo[3.2.1]octan-3-yl)-5-methyl-1H-pyrazol-4-yl)-4-((2-cyano-4-fluorophenyl)thio)pyrazolo [1,5-a]pyridine-3-carbonitrile], the IC50 amounted to 2 nM.

`Cc1nn([C@H]2CCCNC2)cc1-c1cc(Sc2ncccc2F)c2c(C#N)cnn2c1` [Example 415, (S)-4-((3-fluoropyridin-2-yl)thio)-6-(3-methyl-1-(piperidin-3-yl)-1H-pyrazol-4-yl)pyrazolo[1,5-a]pyridine-3-carbonitrile] came in with an IC50 of 7 nM.

As for `CC(=O)NC1CCN(c2ccc(-c3cc(Sc4ccc(F)cc4C#N)c4c(C#N)cnn4c3)cn2)C1` (stereo not shown) [Example 645], it took 1.6 nM to reach half-maximal inhibition (IC50).

For the compound `C[C@@H](O)CCn1cc(-c2cc(Sc3ccccc3C#N)c3c(C#N)cnn3c2)cn1` [Example 571, (R)-4-((2-cyanophenyl)thio)-6-(1-(3-hydroxybutyl)-1H-pyrazol-4-yl)pyrazolo[1,5-a]pyridine-3-carbonitrile], the IC50 is 1 nM. This IC50 is about 1.6-fold lower than that of the compound before.

In turn, `CC(=O)N1CC[C@@H](n2cc(-c3cc(Sc4ccccc4C#N)c4c(C#N)cnn4c3)cn2)[C@H](O)C1` [Example 459, 6-(1-((3R,4R)-1-acetyl-3-hydroxypiperidin-4-yl)-1H-pyrazol-4-yl)-4-((2-cyanophenyl)thio)pyrazolo [1,5-a]pyridine-3-carbonitrile] displayed a half-maximal inhibitory concentration (IC50) of 0.4 nM.

Take `N#Cc1ccccc1Sc1cc(-c2cnn(C[C@@H](O)CO)c2)cn2ncc(C#N)c12` [Example 492, (R)-4-((2-cyanophenyl)thio)-6-(1-(2,3-dihydroxypropyl)-1H-pyrazol-4-yl)pyrazolo[1,5-a]pyridine-3-carbonitrile]: the IC50 was found to be 1 nM.

Regarding `Cc1c(-c2cc(Sc3ncc(F)cc3F)c3c(C#N)cnn3c2)cnn1[C@H]1CCN(C)C(C)(C)C1` [Example 389, (S)-4-((3,5-difluoropyridin-2-yl)thio)-6-(5-methyl-1-(1,2,2-trimethylpiperidin-4-yl)-1H-pyrazol-4-yl)pyrazolo[1,5-a]pyridine-3-carbonitrile], half-maximal inhibition (IC50) was put at 5 nM.

`CNC(=O)Cn1cc(-c2cc(Sc3ccccc3C#N)c3c(C#N)cnn3c2)cn1` [Example 540] gave an IC50 of 1 nM.

In turn, `N#Cc1ccccc1Sc1cc(-c2ccc(N3C[C@@H](O)[C@@H](O)C3)nc2)cn2ncc(C#N)c12` [Example 660, 4-((2-cyanophenyl)thio)-6-(6-((3R,4S)-3,4-dihydroxypyrrolidin-1-yl)pyridin-3-yl)pyrazolo[1,5-a]pyridine-3-carbonitrile] displayed an IC50 of 1 nM. That is a single-digit nanomolar value.

On to `CS(=O)(=O)N1CCC(n2cc(-c3cc(Sc4ccccc4C#N)c4c(C#N)cnn4c3)cn2)CC1` [Example 513, 4-((2-cyanophenyl)thio)-6-(1-(1-(methylsulfonyl)piperidin-4-yl)-1H-pyrazol-4-yl)pyrazolo[1,5-a]pyridine-3-carbonitrile], for which the 50% inhibitory concentration (IC50) came to 1 nM.

As for `N#Cc1ccccc1Sc1cc(-c2cnn([C@H]3CCNC(=O)C3)c2)cn2ncc(C#N)c12` [Example 592, (S)-4-((2-cyanophenyl)thio)-6-(1-(2-oxopiperidin-4-yl)-1H-pyrazol-4-yl)pyrazolo[1,5-a]pyridine-3-carbonitrile], the IC50 was 1 nM. In other words, the single-digit nanomolar range.

The record behind these values is patent publication US20240270741A1 (Cogent Biosciences, Inc., priority 2023, published 2024).
